Here are results for two compounds from patent US20080261895A1 (Wyeth, priority 2006, published 2008).

SMILES strings stand for the structures.

One series deals with Opiate. As to conditions: cited from earlier work.
In the next series the target is Histamine Hi (Homo sapiens, UniProt P35367). As to conditions: cited from earlier work.
For the next series, the target named is D2 (Homo sapiens, UniProt P14416). To be noted: cited from earlier work.
For series [1], the system named is Reserpine-Induce Hypothermia. As to conditions: cited from earlier work.
The next series relates to Adrenergic a. As to conditions: cited from earlier work.
Series [2] in a line: Metabolites of DVS observed by LC/MS in dog plasma, urine and feces. The format is in vivo, beagle dogs. As to conditions: P: plasma, U: urine, F: feces. The protocol:
An Agilent Model 1100 HPLC system (Agilent Technologies, Wilmington, Del.) including an autosampler and diode array UV detector was used for LC/MS analysis. The UV detector was set to monitor 200 to 400 nm. Separations were accomplished on a 5 micron Phenomenex Luna C18(2) column, 150×2 mm (Phenomenex). The column temperature was 25° C. For selected LC/MS analyses, radiochromatograms were acquired using a β-RAM model 3 radioactivity flow detector (IN/US Systems Inc., Tampa, Fla.) equipped with a solid scintillation flow cell.
The mass spectrometers used for metabolite characterization were a Micromass Q-TOF-2 quadrupole time-of-flight hybrid mass spectrometer (Micromass, Inc., Beverly, Mass.) and a Finnigan LCQ Deca ion trap mass spectrometer (ThermoFinnigan, San Jose, Calif.). The mass spectrometer was equipped with an electrospray ionization (ESI) interface and operated in the positive ionization mode.

In the next series the test system is s Cholinergic. To be noted: cited from earlier work.
Series [3] in a line: Metabolites of DVS observed by LC/MS in rat plasma, urine and feces. The class given is in vivo, Sprague Dawley rats. To be noted: P: plasma, U: urine, F: feces. The protocol:
An Agilent Model 1100 HPLC system (Agilent Technologies, Wilmington, Del.) including an autosampler and diode array UV detector was used for LC/MS analysis. The UV detector was set to monitor 200 to 400 nm. Separations were accomplished on a 5 micron Phenomenex Luna C18(2) column, 150×2 mm (Phenomenex). The column temperature was 25° C. The mobile phases and gradient program were as follows.
The mass spectrometer used for metabolite characterization was a Micromass Q-TOF-2 quadrupole time-of-flight hybrid mass spectrometer (Micromass, Inc., Beverly, Mass.). The mass spectrometer was equipped with an electrospray ionization (ESI) interface and operated in the positive ionization mode.

In the next series the test system is monoamine oxidase. To be noted: cited from earlier work.
The next series relates to histaminergic receptors. To be noted: in vitro; cited from earlier work.
A further series deals with adrenergic receptors. As to conditions: in vitro; cited from earlier work.
Another series relates to dog liver microsomes. Briefly: Glucuronidation in dog liver microsomes. To be noted: dog liver microsomes 1 mg/mL, 100 μM, 30 minutes. The format is in vitro ADME. The method, then:
To confirm the site of glucuronidation of DVS, incubations were performed using dog liver microsomes. These incubations compared the glucuronidation of DVS to venlafaxine. […] Reactions were initiated by the addition of UDPGA (final concentration 1 mM). An additional set of incubations was performed for venlafaxine with UDPGA and an NADPH generating system. […] Reactions were stopped by the addition of 500 μL of acetonitrile and processed as described above. Samples were analyzed by LC/MS.
(In general: Liver microsomes are a subcellular fraction often used to study metabolism.)

Histamine Hi, sequence (P35367 whole entry): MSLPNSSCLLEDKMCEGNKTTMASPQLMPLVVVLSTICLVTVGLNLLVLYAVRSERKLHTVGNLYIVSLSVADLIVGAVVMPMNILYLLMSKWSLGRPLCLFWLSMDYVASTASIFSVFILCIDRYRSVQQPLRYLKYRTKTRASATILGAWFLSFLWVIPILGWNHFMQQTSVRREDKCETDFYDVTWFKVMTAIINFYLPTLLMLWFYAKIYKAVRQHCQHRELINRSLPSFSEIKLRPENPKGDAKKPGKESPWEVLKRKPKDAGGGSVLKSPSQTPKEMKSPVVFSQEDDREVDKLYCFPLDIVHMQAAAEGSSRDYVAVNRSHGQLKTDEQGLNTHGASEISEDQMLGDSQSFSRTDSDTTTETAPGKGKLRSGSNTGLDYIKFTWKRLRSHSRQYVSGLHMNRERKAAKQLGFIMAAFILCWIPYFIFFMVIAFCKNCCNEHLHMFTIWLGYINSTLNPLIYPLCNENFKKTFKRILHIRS
D2, sequence (P14416 whole entry): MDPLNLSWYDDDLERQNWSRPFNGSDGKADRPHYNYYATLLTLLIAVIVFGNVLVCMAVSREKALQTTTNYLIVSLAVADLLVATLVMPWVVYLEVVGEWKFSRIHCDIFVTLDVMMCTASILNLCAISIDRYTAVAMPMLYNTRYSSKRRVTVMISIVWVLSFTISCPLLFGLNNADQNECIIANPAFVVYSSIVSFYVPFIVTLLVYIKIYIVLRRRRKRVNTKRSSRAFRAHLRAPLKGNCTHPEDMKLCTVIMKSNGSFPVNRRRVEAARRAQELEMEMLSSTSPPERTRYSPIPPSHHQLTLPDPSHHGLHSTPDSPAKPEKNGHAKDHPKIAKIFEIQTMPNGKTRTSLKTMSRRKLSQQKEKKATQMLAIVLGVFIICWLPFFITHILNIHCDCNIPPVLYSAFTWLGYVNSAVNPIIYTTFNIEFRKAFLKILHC

With `CN(C)CC(c1ccc(O)cc1)C1(O)CCCCC1` (stereo not shown) [O-DESMETHYLVENLAFAXINE, 1-[2-(dimethylamino)-1-(4-phenol)ethyl]-cyclohexanol], the “Affinity for Various Neuroreceptors (% inhibition at 1 uM): Opiate” value with Opiate was 7%. For the same compound, at Histamine Hi, the “Affinity for Various Neuroreceptors (% inhibition at 1 uM): Histamine Hi” value is reported as 0%. Moreover, the “Affinity for Various Neuroreceptors (% inhibition at 1 uM): D2” value on D2 is on record as 6%. Moreover, the “Reversal of Reserpine-Induce Hypothermia (minimum effect; mg&g i.p.)” value in series [1] is on record as 3 mg&g. Moreover, in the series on Adrenergic a, the “Affinity for Various Neuroreceptors (% inhibition at 1 uM): Adrenergic a” value is 0%. Also, the “Matrix (metabolite observed by LC/MS)” value in [2] is “P, U, F”; in series [3], “P, U, F”. Further, the “Affinity for Various Neuroreceptors (% inhibition at 1 uM): s Cholinergic” value with s Cholinergic is 7%.
In the case of `COc1ccc(C(CN(C)C)C2(O)CCCCC2)cc1` (stereo not shown) [venlafaxine, 1-[2-(dimethylamino)-1-(4-methoxyphenyl)ethyl]cyclohexanol], the “inhibitory activity on monoamine oxidase” value in the series with monoamine oxidase is on record as “no inhibitory activity”. Besides, the “affinity for histaminergic receptors” value with histaminergic receptors is “virtually no affinity”. Besides, the “affinity for adrenergic receptors” value with adrenergic receptors is given as “virtually no affinity”. Besides, the glucuronidation result with dog liver microsomes (in the presence of both UDPGA and NADPH) was “observed”; in the series on dog liver microsomes (in the presence of only UDPGA) it was “not”.
